Test results taken from article PMC12903969, “Discovery of a Novel and Potent Kir4.1 Inhibitor as a Safe and Rapid‐Onset Antidepressant Agent in Mice” (Advanced Science, 2025).
“And” between values parts separate entries of the source, which are not always exact repeats. Equal values may be shown once. Read-outs that look alike come from different tables or passages of the source.

What was measured:
[1] = system: OBX C57BL/6J mice; assay: Olfactory bulbectomy (OBX) model, open field test; assay type: in vivo; conditions: 30 mg kg−1, within 1 h
Source text: Male C57BL/6J mice (8–12 weeks old) were anesthetized by intraperitoneal injection of tiletamine‐zolazepam‐xylazine. Following confirmation of anesthesia, a midline scalp incision was made to expose the skull, and the bregma was identified as the anatomical reference point. Using a stereotaxic frame (Stoelting), bilateral olfactory bulbs (4 mm anterior to the bregma) were aspirated through a 1‐mm burr hole drilled with a dental drill. Hemostatic sponges were applied to the burr holes, and the incision was closed with 5‐0 silk sutures. The sham‐operated controls underwent identical procedures without bulb aspiration. Prophylactic antibiotic therapy (25% ampicillin, […], i.p.) was administered daily for three consecutive days post‐surgery. The animals were monitored during a 14‐day recovery period prior to behavioral assessments. After euthanasia, successful bulbectomy was verified by gross anatomical inspection, and habenular tissues were dissected on ice for subsequent molecular analyses.
This test was used to assess anxiety‐related behaviors in the mice. C57BL/6J mice were individually habituated to a 40 × 40 × 40 cm^3 open field arena under dim light for […]. Locomotor activity during the final 5 min was digitally recorded (30 fps) and analyzed using Tracking Master (Future Life Science (Shanghai) Co., Ltd., Shanghai, China). […]

[2] = target: T1, Kir4.1 E158N (Homo sapiens, UniProt P78508, E158N); assay: Whole-cell patch clamp, Kir4.1 point mutant E158N; assay type: cell-based
T1 construct: expressed in transfected cells; host or cells: CHO-K1
T1 sequence (P78508 1-379 E158N): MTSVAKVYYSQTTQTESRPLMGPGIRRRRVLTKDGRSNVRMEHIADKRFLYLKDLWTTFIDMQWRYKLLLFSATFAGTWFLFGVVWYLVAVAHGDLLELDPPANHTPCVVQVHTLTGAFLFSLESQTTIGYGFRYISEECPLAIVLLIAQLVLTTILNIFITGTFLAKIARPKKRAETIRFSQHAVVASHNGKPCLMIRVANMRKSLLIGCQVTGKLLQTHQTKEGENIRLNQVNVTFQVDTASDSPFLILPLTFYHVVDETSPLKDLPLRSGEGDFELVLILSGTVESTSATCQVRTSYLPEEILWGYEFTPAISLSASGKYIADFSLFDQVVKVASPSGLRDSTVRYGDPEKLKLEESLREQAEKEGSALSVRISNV
Method: Plasmids encoding WT human potassium channels Kir1.1, Kir2.1, Kir2.2, Kir4.1, and Kir4.2 were obtained from the Beijing Genomics Institute. All point mutations were constructed using the QuickChange II Site‐Directed Mutagenesis Kit (Stratagene) and subsequently verified by sequencing.
CHO‐K1 cells were maintained in DMEM/F12 growth medium containing 10% fetal bovine serum. Plasmids encoding the target genes (3600 ng) and enhanced green fluorescent protein (400 ng) were cotransfected into cells using Lipofectamine 2000 (Invitrogen) in accordance with the manufacturer's instructions. Cells were seeded onto poly‐d‐lysine (PDL)‐coated glass coverslips 1 h prior to electrophysiological recordings. All cells were cultured under standard conditions of 5% CO2 at 37 °C.
Whole‐cell patch‐clamp recordings were obtained either in transiently transfected CHO‐K1 cells or in primary cultured astrocytes at room temperature using standard patch‐clamp techniques with an Axopatch‐700B amplifier (Axon Instruments). The signals were filtered at 2 kHz and sampled at 20 kHz using the Digidata 1440A interface (Axon Instruments). The resistance of borosilicate glass pipettes was typically 2–4 MΩ when filled with the internal solution. Drug application was facilitated using a BPS perfusion system (ALA Scientific Instruments). Macroscopic currents generated by expressed potassium channels were recorded under the voltage‐clamp conditions with an internal pipette solution composed of (in mM): 140 KCl, 5 NaCl, 1 CaCl2, 1 MgCl2, 10 HEPES, and 10 EGTA, pH 7.2 adjusted with KOH. The external solution contained (in mM): 140 NaCl, 5 KCl, 2 CaCl2, 1 MgCl2, 10 glucose, and 10 HEPES, pH 7.4 adjusted with NaOH. Currents were elicited with a hyperpolarized voltage at −120 mV from the holding potential of −80 mV, followed by a ramp voltage depolarizing to +50 mV. Astrocytic resting membrane potentials were recorded under current‐clamp conditions (I = 0 pA) using standard internal and external solutions, determined immediately after achieving whole‐cell mode.

[3] = system: C57BL/6J mice; assay: Novelty-suppressed feeding test (NSFT); assay type: in vivo
Method: The mice were individually housed in new cages and deprived of food for 24 h. The testing equipment was a brightly lit plastic box measuring 40 × 40 × 30 cm^3 with a light intensity of 1100–1200 lux. Each mouse was positioned in a corner of the device with one food pellet located at the center. The latency to start chewing food was recorded within 5 min. Immediately thereafter, the mice were placed back in their home cage with pre‐measured food, and the amount consumed in the next 5 min was used as a baseline to account for appetite changes that might affect the outcome.

[4] = target: T2, 5-HT2B receptor (Homo sapiens, UniProt P41595); assay: 5-HT2B functional assay (Fluo-4 calcium, FDSS); assay type: cell-based
T2 construct: expressed in transfected cells
T2 sequence (P41595 whole entry): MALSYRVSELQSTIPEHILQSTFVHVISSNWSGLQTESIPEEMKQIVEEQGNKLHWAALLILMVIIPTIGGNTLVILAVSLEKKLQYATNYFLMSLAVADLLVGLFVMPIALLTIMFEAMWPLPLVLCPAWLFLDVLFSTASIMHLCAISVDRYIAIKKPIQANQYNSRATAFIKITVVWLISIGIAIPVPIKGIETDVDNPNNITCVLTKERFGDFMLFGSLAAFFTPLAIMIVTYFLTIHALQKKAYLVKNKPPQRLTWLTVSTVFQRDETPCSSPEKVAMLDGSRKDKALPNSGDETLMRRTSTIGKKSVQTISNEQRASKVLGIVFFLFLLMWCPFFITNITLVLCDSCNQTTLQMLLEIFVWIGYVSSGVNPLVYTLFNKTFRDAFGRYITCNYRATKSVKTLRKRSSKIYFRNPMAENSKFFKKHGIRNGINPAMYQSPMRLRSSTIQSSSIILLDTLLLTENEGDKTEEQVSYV
Method: Cells with inducible expression of target receptor were cultured in 175‐cm^2 flasks until ≈80% confluence, washed once with phosphate‐buffered saline (PBS), and dissociated using 0.25% trypsin–EDTA. After neutralization with culture medium and centrifugation (800 rpm, 3 min), the cells were resuspended, counted, and seeded onto poly‐D‐lysine‐coated 96‐well black plates at a density of 4 × 10^4 cells/well. Expression of the target receptor was induced with 1 µg mL^−1 doxycycline. After 30 min at room temperature, the plates were incubated at 37 °C, 5% CO2 for 18−24 h until reaching ≈90% confluence. The medium was replaced with Ca^2⁺‐free extracellular buffer, washed once, and incubated with Fluo‐4 AM for 60 min at 37 °C in the dark. After washing twice with extracellular buffer, extracellular buffer was added (80 µL/well), and the cells were incubated for an additional 20 min at room temperature before fluorescence recording. Real‐time fluorescence changes were recorded using an FDSS/µCell system at 480 nm excitation and 540 nm emission with a sampling rate of 1 Hz. After a 10‐s baseline, the test compounds were added (20 µL/well), and fluorescence was recorded for 180 s. Subsequently, […] was added (20 µL/well), and the signals were monitored for a total of 360 s.
The agonistic effect (%) of compounds was calculated as follows: (1) Agonist%=Rcompound−Rcontrol/Rcontrol×100% where R control is the maximal fluorescence ratio after the addition of 0.5% DMSO and R compoundis the ratio obtained after compound treatment. Fluorescence response curves and EC50 values were used to evaluate the agonistic potency. The extracellular (Ca^2+‐free) buffer contained (in mM): 140 NaCl, 5 KCl, 1 MgCl2, 10 glucose, 10 HEPES, 2 probenecid; pH adjusted to 7.4 with NaOH.

SMILES: c1ccc2c(c1)oc1ccc(Nc3ccnc(NCCCN4CCOCC4)n3)cc12 [JX3212, N^4-(dibenzo[b,d]furan-2-yl)-N^2-(3-morpholinopropyl)pyrimidine-2,4-diamine]
- OBX: percentage of distance traveled in the center (in words) [1]: increased percentage of distance traveled in the center
- OBX: total distance traveled (in words) [1]: did not affect the distance traveled
- inhibition at 3 µM ([2]; 3 µM, mean ± SEM, read-out: current inhibition, Kir4.1 E158N): 29.4 ± 2.66%
- Mutation: E158N inhibition, single recordings ([2]; JX3212 3 µM (Fig 2D)): 26.6694 and 31.4659 and 31.9554
- inhibition at 3 µM ([2]; JX3212 3 µM (Fig 2D), read-out: Mutation: E158N inhibition, single recordings): 27.7%
- effective threshold dose in NSFT ([3]; acute administration, doses 1, 3, 10 mg kg−1): 10 mg/kg
- food intake in home cage after NSFT (in words) ([3]; repeated administration, vs vehicle): remained comparable to that in the vehicle group
- Food intake in home cage, single mice ([3]; repeated doses, 3 mg/kg (Fig 3F), 3 mg/kg): 0.14 and 0.11 and 0.12 and 0.1 and 0.09
- NSFT antidepressant-like response after repeated administration (in words) ([3]; seven days, imipramine 15 mg kg−1, JX3212 3/10 mg kg−1): elicited significant antidepressant‐like responses
- NSFT latency to feed (in words) ([3]; single dose 10 mg kg−1 i.p., 1 h after administration): significantly reduced the latency to feed
- EC50 ([4]; agonistic effect): > 60 µM
- activation at 60 µM ([4]; read-out: 5-HT2B agonistic effect, replicates, concentration 60 (presumably µM)): 55.2%
- Emax ([4]; read-out: 5-HT2B max activation%): 62.4%
